# Measurements as given in the NIST ThermoML archive (doi:10.1016/j.jct.2007.09.002).
# Numbers after ± are expanded uncertainties.
# Settings: Liquid; Ebulliometric method (Recirculating still)
row,SMILES,Normal boiling temperature [°C]
1,FC(F)(F)c1ccccc1 [(trifluoromethyl)benzene],102.6 ± 0.2
2,c1ccccc1 [benzene],80 ± 0.2
3,CCO [ethanol],78.6 ± 0.2
4,ClC(Cl)Cl [trichloromethane],61.0 ± 0.2
